Laboratory results from PubChem BioAssay (NCI).
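Protocol summary: plate cells (96-well), add compound at 5 concentrations, incubate 48 h, interpolate endpoints linearly. Here, GI50 denotes the concentration required for 50% inhibition of growth. TGI: total growth inhibition.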

Legend:
Experiment in all cases: inhibition of tumour cell growth, NCI panel, 48 h
SK-MEL-28 melanoma = system: SK-MEL-28 melanoma
OVCAR-5 ovarian = system: OVCAR-5 ovarian
HCT-15 colon = system: HCT-15 colon
HCT-116 colon = system: HCT-116 colon
SNB-19 CNS = system: SNB-19 CNS
UACC-257 melanoma = system: UACC-257 melanoma
SNB-75 CNS = system: SNB-75 CNS
OVCAR-4 ovarian = system: OVCAR-4 ovarian
CCRF-CEM leukemia = system: CCRF-CEM leukemia
CAKI-1 renal = system: CAKI-1 renal

`O=C1CC[C@@H]2[C@H]3CCC(=O)c4c3c(c3cccc(O)c3c4O)O[C@@]23C(=O)c2cccc(O)c2C(O)=C13` was tested, and the GI50 (SK-MEL-28 melanoma) was over 100 µM, the TGI (SK-MEL-28 melanoma) was over 100 µM and the GI50 (OVCAR-5 ovarian) was over 100 µM. It also gave a TGI (OVCAR-5 ovarian) of over 100 µM, a GI50 (HCT-15 colon) of over 100 µM and a TGI (HCT-15 colon) of over 100 µM. The GI50 (HCT-116 colon) was over 100 µM, the TGI (HCT-116 colon) was over 100 µM and the GI50 (SNB-19 CNS) was over 100 µM. The TGI (SNB-19 CNS) was over 100 µM, the GI50 (UACC-257 melanoma) was over 100 µM and the TGI (UACC-257 melanoma) was over 100 µM. It also gave a GI50 (SNB-75 CNS) of over 100 µM and a TGI (SNB-75 CNS) of over 100 µM.
`N/N=C1\C(=O)N(c2ccc(Cl)c(Cl)c2)C(=O)C1C(=O)Nc1ccc(Cl)c(Cl)c1` (stereo not given) was tested, and the TGI (SK-MEL-28 melanoma) was over 100 µM, the TGI (OVCAR-5 ovarian) was over 100 µM and the TGI (HCT-15 colon) was over 100 µM. The TGI (HCT-116 colon) was over 100 µM, the TGI (SNB-19 CNS) was over 100 µM and the TGI (OVCAR-4 ovarian) was over 100 µM. It also gave a TGI (UACC-257 melanoma) of over 100 µM, a TGI (CCRF-CEM leukemia) of over 100 µM and a TGI (SNB-75 CNS) of over 100 µM.
`Cc1c(C(=O)Nc2ccc(Oc3ccnc4cc(OCC(C)(C)O)ccc34)c(F)c2)c(=O)n(-c2ccccc2)n1C` showed a GI50 (SNB-19 CNS) of 7.23 µM, a TGI (SNB-19 CNS) of over 100 µM and a GI50 (SNB-75 CNS) of 2.93 µM. For the same molecule, the TGI (SNB-75 CNS) was over 100 µM.
In the case of `CCOC(=O)C(c1ccsc1)P(=O)(OCC)OCC` (stereo not given), the TGI (SK-MEL-28 melanoma) is reported as 32.4 µM, the TGI (OVCAR-5 ovarian) is reported as 37.7 µM and the TGI (HCT-15 colon) is reported as 37.4 µM. It also gave a TGI (HCT-116 colon) of 25.7 µM, a TGI (SNB-19 CNS) of 44.4 µM and a TGI (CAKI-1 renal) of 27.9 µM. It also gave a TGI (OVCAR-4 ovarian) of over 100 µM, a TGI (UACC-257 melanoma) of 33.2 µM and a TGI (SNB-75 CNS) of 43.5 µM.
In the case of `CN(C)c1ccc(-c2nc(N)nc3c2CCCC3)cc1`, the TGI (SK-MEL-28 melanoma) is reported as over 100 µM, the TGI (OVCAR-5 ovarian) is reported as over 100 µM and the TGI (HCT-116 colon) is reported as over 100 µM. The TGI (SNB-19 CNS) was over 100 µM, the TGI (CAKI-1 renal) was over 100 µM and the TGI (CCRF-CEM leukemia) was over 100 µM. The TGI (SNB-75 CNS) was over 100 µM.
In the case of `Cc1nc2ccccc2c(/C=C/c2ccc(C(F)(F)F)cc2)c1C(=O)/C=C/c1ccccc1`, the GI50 (SK-MEL-28 melanoma) is reported as 1.77 µM, the TGI (SK-MEL-28 melanoma) is reported as 3.22 µM and the GI50 (OVCAR-5 ovarian) is reported as 1.86 µM. It also gave a TGI (OVCAR-5 ovarian) of 3.35 µM, a GI50 (HCT-15 colon) of 1.1 µM and a TGI (HCT-15 colon) of 3.16 µM. The GI50 (HCT-116 colon) was 0.521 µM, the TGI (HCT-116 colon) was 2.03 µM and the GI50 (SNB-19 CNS) was 1.64 µM. It also gave a TGI (SNB-19 CNS) of 3.01 µM, a GI50 (CAKI-1 renal) of 1.23 µM and a TGI (CAKI-1 renal) of 2.51 µM. For the same molecule, the GI50 (UACC-257 melanoma) was 1.61 µM, the TGI (UACC-257 melanoma) was 3.17 µM and the GI50 (CCRF-CEM leukemia) was 0.675 µM. It also gave a TGI (CCRF-CEM leukemia) of over 100 µM, a GI50 (SNB-75 CNS) of 1.38 µM and a TGI (SNB-75 CNS) of 2.81 µM.
Molecule `CC(C)OC(=O)NNc1c(Cl)cc(Cl)cc1Cl` has a TGI (SK-MEL-28 melanoma) of over 100 µM, a TGI (OVCAR-5 ovarian) of over 100 µM and a TGI (HCT-15 colon) of over 100 µM. The TGI (HCT-116 colon) was over 100 µM, the TGI (SNB-19 CNS) was over 100 µM and the TGI (CAKI-1 renal) was over 100 µM. The TGI (UACC-257 melanoma) was over 100 µM, the TGI (CCRF-CEM leukemia) was over 100 µM and the TGI (SNB-75 CNS) was over 100 µM.
Molecule `CC(C)(C)c1ccc(OCCCCCCCN2CCNCC2)cc1` has a GI50 (HCT-15 colon) of 1.64 µM, a TGI (HCT-15 colon) of 3.38 µM and a GI50 (SNB-19 CNS) of 3.42 µM. For the same molecule, the TGI (SNB-19 CNS) was 12.8 µM, the GI50 (CAKI-1 renal) was 1.46 µM and the TGI (CAKI-1 renal) was 2.81 µM. It also gave a GI50 (OVCAR-4 ovarian) of 1.6 µM, a TGI (OVCAR-4 ovarian) of 3.22 µM and a GI50 (UACC-257 melanoma) of 1.98 µM. For the same molecule, the TGI (UACC-257 melanoma) was 3.8 µM, the GI50 (CCRF-CEM leukemia) was 1.62 µM and the TGI (CCRF-CEM leukemia) was 4.1 µM. For the same molecule, the GI50 (SNB-75 CNS) was 1.57 µM and the TGI (SNB-75 CNS) was 3.74 µM.
With `CN(C)Cc1nsc(N(C)C)n1` the TGI (SK-MEL-28 melanoma) was over 100 µM, the TGI (OVCAR-5 ovarian) was over 100 µM and the TGI (HCT-15 colon) was over 100 µM. For the same molecule, the TGI (HCT-116 colon) was over 100 µM, the TGI (SNB-19 CNS) was over 100 µM and the TGI (CAKI-1 renal) was over 100 µM. The TGI (OVCAR-4 ovarian) was over 100 µM, the TGI (UACC-257 melanoma) was over 100 µM and the TGI (SNB-75 CNS) was over 100 µM.
In the case of `COC(=O)C(C(=O)C(=O)Nc1nc2ccc(OC)cc2s1)c1cnc2ccccc2n1` (stereo not given), the TGI (SK-MEL-28 melanoma) is reported as over 100 µM, the TGI (OVCAR-5 ovarian) is reported as over 100 µM and the TGI (HCT-15 colon) is reported as over 100 µM. For the same molecule, the TGI (HCT-116 colon) was over 100 µM, the TGI (SNB-19 CNS) was over 100 µM and the TGI (CAKI-1 renal) was over 100 µM. For the same molecule, the TGI (OVCAR-4 ovarian) was over 100 µM, the TGI (UACC-257 melanoma) was over 100 µM and the TGI (SNB-75 CNS) was over 100 µM.
Work on `Cc1nc2sc(C(=O)Nc3cccc4c3OCCO4)c(N)c2cc1C(C)O` (stereo not given) yielded a GI50 (SK-MEL-28 melanoma) of over 100 µM, a TGI (SK-MEL-28 melanoma) of over 100 µM and a GI50 (OVCAR-5 ovarian) of 43.2 µM. It also gave a TGI (OVCAR-5 ovarian) of over 100 µM, a GI50 (HCT-15 colon) of 3.26 µM and a TGI (HCT-15 colon) of over 100 µM. The GI50 (HCT-116 colon) was 5.57 µM, the TGI (HCT-116 colon) was over 100 µM and the GI50 (SNB-19 CNS) was 6.8 µM. The TGI (SNB-19 CNS) was over 100 µM, the GI50 (CAKI-1 renal) was 4.91 µM and the TGI (CAKI-1 renal) was over 100 µM. It also gave a GI50 (OVCAR-4 ovarian) of over 100 µM, a TGI (OVCAR-4 ovarian) of over 100 µM and a GI50 (CCRF-CEM leukemia) of 3.5 µM. For the same molecule, the TGI (CCRF-CEM leukemia) was over 100 µM, the GI50 (SNB-75 CNS) was 1.81 µM and the TGI (SNB-75 CNS) was over 100 µM.
